From PubChem BioAssay AID1963837 (Molecular Pharmacology Branch, DTP, NCI, 2024)

Test system: 843126-344-R-J1-PDC complex spheroid viability
Assay: Anticancer human tumor 843126-344-R-J1-PDC patient-derived melanoma cell line growth inhibition [POLQ]
Conditions: for IC50: curve of first compound; for viability, T/C: stronger effect = lower value
How it was run: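 Growth inhibition in 3D: complex spheroids (tumor PDC, HUVEC, MSC) treated with POLQ inhibitor combinations; where Cmax unknown, highest tested concentration 10 microM, except SN-38 at 1 microM.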

[1] = second compound 0.0316 µM, first compound 0.00316 µM
[2] = second compound 0.0316 µM, first compound 0.01 µM
[3] = second compound 0.0316 µM, first compound 0.0316 µM
[4] = second compound 0.0316 µM, first compound 0.1 µM
[5] = second compound 0.0316 µM, first compound 0.316 µM
[6] = second compound 0.0316 µM, first compound 1 µM
[7] = second compound 0.1 µM, first compound 0.00316 µM
[8] = second compound 0.1 µM, first compound 0.01 µM
[9] = second compound 0.1 µM, first compound 0.0316 µM
[10] = second compound 0.1 µM, first compound 0.1 µM
[11] = second compound 0.1 µM, first compound 0.316 µM
[12] = second compound 0.1 µM, first compound 1 µM
[13] = second compound 0.316 µM, first compound 0.00316 µM
[14] = second compound 0.316 µM, first compound 0.01 µM
[15] = second compound 0.316 µM, first compound 0.0316 µM
[16] = second compound 0.316 µM, first compound 0.1 µM
[17] = second compound 0.316 µM, first compound 0.316 µM
[18] = second compound 0.316 µM, first compound 1 µM
[19] = second compound 1 µM, first compound 0.00316 µM
[20] = second compound 1 µM, first compound 0.01 µM
[21] = second compound 1 µM, first compound 0.0316 µM
[22] = second compound 1 µM, first compound 0.1 µM
[23] = second compound 1 µM, first compound 0.316 µM
[24] = second compound 1 µM, first compound 1 µM
[25] = second compound 3.16 µM, first compound 0.00316 µM
[26] = second compound 3.16 µM, first compound 0.01 µM
[27] = second compound 3.16 µM, first compound 0.0316 µM
[28] = second compound 3.16 µM, first compound 0.1 µM
[29] = second compound 3.16 µM, first compound 0.316 µM
[30] = second compound 3.16 µM, first compound 1 µM
[31] = second compound 10 µM, first compound 0.00316 µM
[32] = second compound 10 µM, first compound 0.01 µM
[33] = second compound 10 µM, first compound 0.0316 µM
[34] = second compound 10 µM, first compound 0.1 µM
[35] = second compound 10 µM, first compound 0.316 µM
[36] = second compound 10 µM, first compound 1 µM
[37] = second compound 0.0316 µM, first compound 3.16 µM
[38] = second compound 0.0316 µM, first compound 10 µM
[39] = second compound 0.1 µM, first compound 3.16 µM
[40] = second compound 0.1 µM, first compound 10 µM
[41] = second compound 0.316 µM, first compound 3.16 µM
[42] = second compound 0.316 µM, first compound 10 µM
[43] = second compound 1 µM, first compound 3.16 µM
[44] = second compound 1 µM, first compound 10 µM
[45] = second compound 3.16 µM, first compound 3.16 µM
[46] = second compound 3.16 µM, first compound 10 µM
[47] = second compound 10 µM, first compound 3.16 µM
[48] = second compound 10 µM, first compound 10 µM
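For viability, T/C in this document: spheroids exposed to drugs for seven days before readout.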

## C=CCn1c(=O)c2cnc(Nc3ccc(N4CCN(C)CC4)cc3)nc2n1-c1cccc(C(C)(C)O)n1 + Nc1ccc(C#CCN(C(=O)Cc2ncc(C(F)(F)F)cc2C(F)(F)F)c2ccc(F)cc2)nn1
Second compound 0.0316 µM
  IC50: > 1 µM
Second compound 0.1 µM
  IC50: > 1 µM
Second compound 0.316 µM
  IC50: > 1 µM
Second compound 1 µM
  IC50: > 1 µM
Second compound 3.16 µM
  IC50: > 1 µM
Second compound 10 µM
  IC50: > 1 µM
[1]
  viability, T/C: 93.9%
[2]
  viability, T/C: 81.2%
[3]
  viability, T/C: 98.9%
[4]
  viability, T/C: 110%
[5]
  viability, T/C: 101%
[6]
  viability, T/C: 81.9%
[7]
  viability, T/C: 91.9%
[8]
  viability, T/C: 92.1%
[9]
  viability, T/C: 104%
[10]
  viability, T/C: 85.9%
[11]
  viability, T/C: 86.5%
[12]
  viability, T/C: 77.6%
[13]
  viability, T/C: 95.1%
[14]
  viability, T/C: 90.7%
[15]
  viability, T/C: 98.8%
[16]
  viability, T/C: 105%
[17]
  viability, T/C: 93.6%
[18]
  viability, T/C: 72%
[19]
  viability, T/C: 106%
[20]
  viability, T/C: 80.8%
[21]
  viability, T/C: 87.7%
[22]
  viability, T/C: 90.4%
[23]
  viability, T/C: 85.4%
[24]
  viability, T/C: 86.4%
[25]
  viability, T/C: 91.2%
[26]
  viability, T/C: 84.2%
[27]
  viability, T/C: 92.5%
[28]
  viability, T/C: 106%
[29]
  viability, T/C: 75%
[30]
  viability, T/C: 59.8%
[31]
  viability, T/C: 94.1%
[32]
  viability, T/C: 83.7%
[33]
  viability, T/C: 84.5%
[34]
  viability, T/C: 91.9%
[35]
  viability, T/C: 79.1%
[36]
  viability, T/C: 74.5%

## CC(C)n1c(=O)n(C)c2cnc3cc(F)c(-c4ccc(OCCCN5CCCCC5)nc4)cc3c21 + Nc1ccc(C#CCN(C(=O)Cc2ncc(C(F)(F)F)cc2C(F)(F)F)c2ccc(F)cc2)nn1
Second compound 0.0316 µM
  IC50: > 10 µM
Second compound 0.1 µM
  IC50: > 10 µM
Second compound 0.316 µM
  IC50: > 10 µM
Second compound 1 µM
  IC50: > 10 µM
Second compound 3.16 µM
  IC50: > 10 µM
Second compound 10 µM
  IC50: > 10 µM
[3]
  viability, T/C: 91.9%
[4]
  viability, T/C: 74%
[5]
  viability, T/C: 86.2%
[6]
  viability, T/C: 92.6%
[37]
  viability, T/C: 81.5%
[38]
  viability, T/C: 77.8%
[9]
  viability, T/C: 93.8%
[10]
  viability, T/C: 92.4%
[11]
  viability, T/C: 77.7%
[12]
  viability, T/C: 84.6%
[39]
  viability, T/C: 90.7%
[40]
  viability, T/C: 70.6%
[15]
  viability, T/C: 80.8%
[16]
  viability, T/C: 95.4%
[17]
  viability, T/C: 94.5%
[18]
  viability, T/C: 85.7%
[41]
  viability, T/C: 89.2%
[42]
  viability, T/C: 71.6%
[21]
  viability, T/C: 89.3%
[22]
  viability, T/C: 85.7%
[23]
  viability, T/C: 90.9%
[24]
  viability, T/C: 93.5%
[43]
  viability, T/C: 81%
[44]
  viability, T/C: 64.1%
[27]
  viability, T/C: 76.5%
[28]
  viability, T/C: 84%
[29]
  viability, T/C: 88.9%
[30]
  viability, T/C: 82.8%
[45]
  viability, T/C: 81.8%
[46]
  viability, T/C: 81%
[33]
  viability, T/C: 85.3%
[34]
  viability, T/C: 73.2%
[35]
  viability, T/C: 86.8%
[36]
  viability, T/C: 91.4%
[47]
  viability, T/C: 78.3%
[48]
  viability, T/C: 67.8%

## CCc1c2c(nc3ccc(O)cc13)-c1cc3c(c(=O)n1C2)COC(=O)[C@]3(O)CC + COC1C(OC(N)=O)C(O)C(Oc2ccc3c(O)c(NC(=O)c4ccc(O)c(CC=C(C)C)c4)c(=O)oc3c2C)OC1(C)C
Second compound 0.0316 µM
  IC50: > 1 µM
Second compound 0.1 µM
  IC50: > 1 µM
Second compound 0.316 µM
  IC50: > 1 µM
Second compound 1 µM
  IC50: 0.429 µM
Second compound 3.16 µM
  IC50: 0.242 µM
Second compound 10 µM
  IC50: 0.485 µM
[1]
  viability, T/C: 63.2%
[2]
  viability, T/C: 59.4%
[3]
  viability, T/C: 65.9%
[4]
  viability, T/C: 64.5%
[5]
  viability, T/C: 63.1%
[6]
  viability, T/C: 42.7%
[7]
  viability, T/C: 66.5%
[8]
  viability, T/C: 52.1%
[9]
  viability, T/C: 71.4%
[10]
  viability, T/C: 69.2%
[11]
  viability, T/C: 63.8%
[12]
  viability, T/C: 48.6%
[13]
  viability, T/C: 70.5%
[14]
  viability, T/C: 59.4%
[15]
  viability, T/C: 64.9%
[16]
  viability, T/C: 64.8%
[17]
  viability, T/C: 73%
[18]
  viability, T/C: 50.3%
[19]
  viability, T/C: 66.7%
[20]
  viability, T/C: 48.2%
[21]
  viability, T/C: 50.9%
[22]
  viability, T/C: 70.6%
[23]
  viability, T/C: 48.6%
[24]
  viability, T/C: 40.5%
[25]
  viability, T/C: 66.9%
[26]
  viability, T/C: 63.7%
[27]
  viability, T/C: 73.3%
[28]
  viability, T/C: 57.1%
[29]
  viability, T/C: 50.9%
[30]
  viability, T/C: 44.8%
[31]
  viability, T/C: 59.9%
[32]
  viability, T/C: 62.7%
[33]
  viability, T/C: 56.3%
[34]
  viability, T/C: 67.5%
[35]
  viability, T/C: 50%
[36]
  viability, T/C: 43%

## COc1cccc2c1C(=O)c1c(O)c3c(c(O)c1C2=O)CC(O)(C(=O)CO)CC3OC1CC(N)C(O)C(C)O1 (stereo not drawn) + COC1C(OC(N)=O)C(O)C(Oc2ccc3c(O)c(NC(=O)c4ccc(O)c(CC=C(C)C)c4)c(=O)oc3c2C)OC1(C)C
Second compound 0.0316 µM
  IC50: 0.332 µM
Second compound 0.1 µM
  IC50: 0.32 µM
Second compound 0.316 µM
  IC50: 0.295 µM
Second compound 1 µM
  IC50: 0.328 µM
Second compound 3.16 µM
  IC50: 0.404 µM
Second compound 10 µM
  IC50: 0.303 µM
[3]
  viability, T/C: 80%
[4]
  viability, T/C: 81.3%
[5]
  viability, T/C: 50.5%
[6]
  viability, T/C: 14.6%
[37]
  viability, T/C: 4.71%
[38]
  viability, T/C: 3.86%
[9]
  viability, T/C: 84%
[10]
  viability, T/C: 85%
[11]
  viability, T/C: 49.2%
[12]
  viability, T/C: 13.5%
[39]
  viability, T/C: 3.97%
[40]
  viability, T/C: 3.88%
[15]
  viability, T/C: 103%
[16]
  viability, T/C: 71.8%
[17]
  viability, T/C: 58%
[18]
  viability, T/C: 14.1%
[41]
  viability, T/C: 4.21%
[42]
  viability, T/C: 4.82%
[21]
  viability, T/C: 98.3%
[22]
  viability, T/C: 77.2%
[23]
  viability, T/C: 56.2%
[24]
  viability, T/C: 13%
[43]
  viability, T/C: 4.55%
[44]
  viability, T/C: 3.9%
[27]
  viability, T/C: 87.6%
[28]
  viability, T/C: 77%
[29]
  viability, T/C: 60.2%
[30]
  viability, T/C: 16%
[45]
  viability, T/C: 5.73%
[46]
  viability, T/C: 4.31%
[33]
  viability, T/C: 88.6%
[34]
  viability, T/C: 77.6%
[35]
  viability, T/C: 49.9%
[36]
  viability, T/C: 15%
[47]
  viability, T/C: 4.64%
[48]
  viability, T/C: 3.44%
